# Read-outs that look alike come from different tables or passages of the source.
# Experiments:
# [1] = In vitro pH of compositions prepared with organic acids (Table 1); type: physicochemical; settings: composition prepared with the organic acid
# Method: Compositions were prepared with the following organic acids listed in Table 1, and pH values were measured.
# [2] = cited from earlier work; for Water Solubility: intrinsic water solubility of the acid used in Example 5
# [3] = cited from earlier work
# [4] = cited from earlier work; remark: listed apart in the source
# [5] = pH of a saturated aqueous solution of the acid; type: physicochemical; settings: excluding the drug
# Method: The rates of in vitro release of the risperidone salts listed in Example 5 are also related in part to the pH of a saturated aqueous solution of the acid. The pH at saturating concentrations of the acids used in Example 5 and their respective risperidone release rates (expressed as the cumulative percent total risperidone released following 15 days incubation at 37° C.) are shown in FIG. 7.
# [6] = in vitro, after 28 days, PBS 37° C.
compound,measurement,setting,value
"COc1ccc(C(=O)O)cc1 [p-Anisic, p-anisic acid]",In vitro pH,[1],5.05
same,Solubility,"[2]; organic acid, Table 1",400 µg/mL
same,pKa,"[3]; organic acid, Table 1",4.34
Cc1nccn1CC1CCc2c(c3ccccc3n2C)C1=O (stereo not drawn) [ondansetron],water solubility (in words),[4],limited water solubility
"O=C(O)/C=C/c1cccc(O)c1 [m-Coumaric, m-coumaric acid]",In vitro pH,[1],3.95
same,Solubility,[2],1040 µg/mL
same,pKa,[3],4.01
"O=C(O)/C=C/c1ccccc1 [trans-Cinnamic, trans-cinnamic acid]",In vitro pH,[1],4.35
"O=C(O)c1cccnc1 [Nicotinic, nicotinic acid]",In vitro pH,[1],3.68
"O=C(O)/C=C/c1ccc(O)cc1 [p-Coumaric, p-coumaric acid]",In vitro pH,[1],4.36
same,Solubility,"[2]; organic acid, Table 1",1000 to 10000 µg/mL
"O=C(O)CCc1ccc(O)cc1 [Hydroxyphenylpropionic acid, 3-(4-hydroxyphenyl)propionic acid]",Water Solubility,[2],2760 µg/mL
same,pH at a saturating concentration,[5],3.0
O=C(O)C(O)c1ccccc1 (racemic) [rac-Mandelic],In vitro pH,[1],2.42
same,Solubility,"[2]; organic acid, Table 1",158700 µg/mL
same,pKa,"[3]; organic acid, Table 1",3.85
O=C(O)CNC(=O)c1ccccc1 [Hippuric acid],pH at a saturating concentration,[5],2.6
CCCN(CCc1cccs1)[C@H]1CCc2c(O)cccc2C1 [Rotigotine],water solubility (in words),[4],practically insoluble in water
Cc1ccc(C=CC(=O)O)cc1 [4-Methylcinnamic],In vitro pH,[1],6.13
O=c1[nH]c(=O)c2[nH]c(=O)[nH]c2[nH]1 [Uric acid],Water Solubility,[2],60 µg/mL
"COc1cccc(C=CC(=O)O)c1 [m-Methoxycinnamic, m-methoxycinnamic acid]",In vitro pH,[1],4.49
same,Solubility,"[2]; organic acid, Table 1",4460 µg/mL
same,pKa,"[3]; organic acid, Table 1",4.47
"COc1ccc(C=CC(=O)O)cc1 [p-Methoxycinnamic, p-methoxycinnamic acid]",In vitro pH,[1],5.37
same,Solubility,"[2]; organic acid, Table 1",712 µg/mL
same,pKa,"[3]; organic acid, Table 1",4.04
O=C1CC2(CCCC2)CC(=O)N1CCCCN1CCN(c2ncccn2)CC1 [Buspirone],room temperature water solubility,[4]; room temperature,about 21 mg/L
CCN(C)C(=O)Oc1cccc([C@H](C)N(C)C)c1 [Rivastigmine],water solubility (in words),[4],poorly water soluble
O=C(O)C=Cc1ccc(Cl)cc1 [4-Chlorocinnamic],In vitro pH,[1],6.34
same,pKa,"[3]; organic acid, Table 1",4.41
"Nc1ccc(C(=O)O)cc1 [PABA, p-aminobenzoic acid]",In vitro pH,[1],4.21
same,pKa,"[3]; organic acid, Table 1",4.65
CCCc1nc(C)c2c(=O)[nH]c(-c3cc(S(=O)(=O)N4CCN(CC)CC4)ccc3OCC)nn12 [vardenafil],water solubility (in words),[4],limited water solubility
CN(C)CCC[C@@]1(c2ccc(F)cc2)OCc2cc(C#N)ccc21 [Escitalopram],water solubility (in words),[4],practically insoluble in water
"Cc1cc2c(s1)Nc1ccccc1N=C2N1CCN(C)CC1 [olanzapine, reference compound]",water solubility (in words),[4],poorly water soluble
same,pKa1,"[3]; reported value, doubly protonated olanzapine",5.0
"O=C(O)CCCCCCCCC(=O)O [Sebacic, sebacic acid]",pKa,"[3]; organic acid, Table 1",4.72
Cc1nc2n(c(=O)c1CCN1CCC(c3noc4cc(F)ccc34)CC1)CCCC2 [risperidone],insolubility in water as a neutral free base,[4]; 20-25° C.,> 10000 volumes of water per volume of drug
"Clc1ccc2nsnc2c1NC1=NCCN1 [tizanidine free base, tizanidine]",percent of the drug released,[6],approximately 10%
